Assay results reported in patent US10245261B2, “Substituted indol-5-ol derivatives and their therapeutic applications” (NantBioScience, Inc., priority 2013, dated 2019).

Experiments:
KDR(h) = KDR(h) (Homo sapiens, UniProt P35968); assay: KinaseProfiler kinase assay; assay type: biochemical
[1] = system: human MIAPaCa-2 pancreatic carcinoma xenograft; assay: Pancreatic carcinoma xenograft in athymic nude mice; assay type: in vivo, mouse; settings: MIAPaCa-2 xenograft, nude mice, single agent
Description: The objective of the third study was to evaluate antitumor activities of novel multiple-kinase inhibitor NTW-3475 in human MIAPaCa-2 pancreatic carcinoma xenograft in athymic nude-Faxn1 mice.
Four animals were randomly assigned to study groups. Each animal was weighed, and then injected subcutaneously in the left and right flank area with 0.1 ml of 5.0×10^7 MIAPaCa-2 cells per mL.
Each test or control animal was on a 5-day on, two-day off for two cycles treatment schedule with negative control vehicle, positive control Abraxane at 20 mg/kg or 25, 50 mg/kg of NTW-3475. Tumor growth was measured with a digital hand held caliper twice weekly (once tumor emerges) prior to the first dosing and then two to three times weekly until euthanized.
The objective of the third study was to evaluate antitumor activities of novel multiple-kinase inhibitor Compound 10, 11, 12, 53, 68, 82, 83, 88, and 90 in human MIAPaCa-2 pancreatic carcinoma xenograft in athymic nude-Faxn1 mice.
Each test or control animal was on a 5-day on, two-day off for three cycles treatment schedule with negative control vehicle or 40 mg/kg of Compound 10, 11, 12, 53, 68, 82, 83, 88 and 90. Tumor growth was measured with a digital hand held caliper twice weekly (once tumor emerges) prior to the first dosing and then two to three times weekly until euthanized.

Abl(h) = Abl(h) (Homo sapiens, UniProt P00519); assay: KinaseProfiler kinase assay; assay type: biochemical
Chain of Abl(h) (P00519 whole entry): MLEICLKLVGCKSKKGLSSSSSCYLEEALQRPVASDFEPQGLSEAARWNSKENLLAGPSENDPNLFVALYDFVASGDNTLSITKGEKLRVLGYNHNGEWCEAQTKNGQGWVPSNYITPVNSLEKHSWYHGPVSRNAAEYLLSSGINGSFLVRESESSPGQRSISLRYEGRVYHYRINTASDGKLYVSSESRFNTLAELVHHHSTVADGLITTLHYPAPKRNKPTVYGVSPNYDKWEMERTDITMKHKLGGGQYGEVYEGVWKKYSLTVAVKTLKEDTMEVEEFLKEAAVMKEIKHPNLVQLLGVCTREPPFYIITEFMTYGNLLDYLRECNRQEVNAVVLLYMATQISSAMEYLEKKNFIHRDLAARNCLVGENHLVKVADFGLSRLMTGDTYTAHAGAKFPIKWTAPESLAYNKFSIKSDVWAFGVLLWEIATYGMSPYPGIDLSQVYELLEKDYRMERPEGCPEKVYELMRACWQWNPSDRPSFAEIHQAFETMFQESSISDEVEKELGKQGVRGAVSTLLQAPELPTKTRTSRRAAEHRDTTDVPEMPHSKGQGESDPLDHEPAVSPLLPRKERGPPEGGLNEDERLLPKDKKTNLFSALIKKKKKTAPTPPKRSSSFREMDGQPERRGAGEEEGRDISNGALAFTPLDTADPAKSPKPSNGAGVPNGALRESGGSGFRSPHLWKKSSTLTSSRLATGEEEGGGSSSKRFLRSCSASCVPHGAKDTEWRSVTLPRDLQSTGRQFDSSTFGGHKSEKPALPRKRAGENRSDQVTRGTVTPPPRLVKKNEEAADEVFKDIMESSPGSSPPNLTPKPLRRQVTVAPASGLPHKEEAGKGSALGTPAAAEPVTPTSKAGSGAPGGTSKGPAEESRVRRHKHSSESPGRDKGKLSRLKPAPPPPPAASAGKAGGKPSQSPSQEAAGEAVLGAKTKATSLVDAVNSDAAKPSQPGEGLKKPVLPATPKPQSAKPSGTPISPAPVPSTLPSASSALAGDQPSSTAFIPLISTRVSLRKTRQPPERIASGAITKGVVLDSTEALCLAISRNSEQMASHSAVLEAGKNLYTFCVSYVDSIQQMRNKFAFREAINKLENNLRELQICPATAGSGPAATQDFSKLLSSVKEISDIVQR

KU812 = assay: CellTiterBlue cell growth inhibition; assay type: cell-based; settings: Homo sapiens; KU812, 72 hours
Description: (§1) This example illustrated the proliferating cell growth inhibition of selected compounds from this invention. To do this, the cells were seeded into fresh Iscove's growth medium at a density of 0.4e6 cells/ml and grown in log phase for 24 hr. Cells were then resuspended in their fresh respective growth media at 0.1e^6 cells/ml and plated into 384 well black, clear-bottom microplates at 36 ul/well. Test compounds and controls were initially dissolved in DMSO at the desired concentration, then serially diluted to the assay buffer. These solutions were added and cells were incubated for 72 hours at 37° C. CellTiterBlue (Promega cat# G7572) was added on the Beckman FX. Plates were returned to the 37° C. CO2 incubator for 4 hr and then fluorescence was determined on the Victor plate reader. Data were processed using Microsoft Excel, and GI50 values were generated using Prism (GraphPad Software, San Diego, Calif.).

MV4.11 = assay: CellTiterBlue cell growth inhibition; assay type: cell-based; settings: Homo sapiens; MV4.11, 72 hours
Description: as §1

K562 = assay: CellTiterBlue cell growth inhibition; assay type: cell-based; settings: Homo sapiens; K562, 72 hours
Description: as §1

RS4.11 = assay: CellTiterBlue cell growth inhibition; assay type: cell-based; settings: Homo sapiens; RS4.11, 72 hours
Description: as §1

Flt3(h) = target: T1, Flt3(h) (Homo sapiens, UniProt P36888); assay: KinaseProfiler kinase assay; assay type: biochemical
T1 sequence (P36888 27-993): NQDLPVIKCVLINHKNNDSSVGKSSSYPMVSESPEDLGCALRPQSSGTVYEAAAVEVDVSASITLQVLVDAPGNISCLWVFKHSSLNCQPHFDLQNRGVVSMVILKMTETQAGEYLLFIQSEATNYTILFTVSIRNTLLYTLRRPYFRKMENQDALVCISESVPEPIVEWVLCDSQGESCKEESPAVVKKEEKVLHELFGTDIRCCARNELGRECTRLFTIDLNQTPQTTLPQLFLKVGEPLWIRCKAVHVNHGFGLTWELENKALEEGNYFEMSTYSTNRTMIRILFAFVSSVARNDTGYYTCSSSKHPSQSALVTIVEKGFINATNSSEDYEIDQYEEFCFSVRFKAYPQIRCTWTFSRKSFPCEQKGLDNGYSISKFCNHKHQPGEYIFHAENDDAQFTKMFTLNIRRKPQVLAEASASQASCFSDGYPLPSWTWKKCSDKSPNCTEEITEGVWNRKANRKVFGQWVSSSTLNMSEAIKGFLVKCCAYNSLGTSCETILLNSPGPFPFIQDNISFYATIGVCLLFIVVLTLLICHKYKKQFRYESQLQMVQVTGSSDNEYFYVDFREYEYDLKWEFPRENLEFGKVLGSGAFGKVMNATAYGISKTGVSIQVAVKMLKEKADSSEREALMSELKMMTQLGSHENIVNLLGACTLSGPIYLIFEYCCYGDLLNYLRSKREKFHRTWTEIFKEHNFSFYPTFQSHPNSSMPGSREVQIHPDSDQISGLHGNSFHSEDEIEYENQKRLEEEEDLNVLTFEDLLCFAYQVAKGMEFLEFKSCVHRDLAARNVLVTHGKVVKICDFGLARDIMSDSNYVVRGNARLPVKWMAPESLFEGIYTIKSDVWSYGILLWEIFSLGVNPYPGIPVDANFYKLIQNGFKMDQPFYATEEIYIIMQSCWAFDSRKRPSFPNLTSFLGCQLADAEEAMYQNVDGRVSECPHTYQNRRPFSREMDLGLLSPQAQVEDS
Summary of the method: (§2)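 Steps: compound diluted from DMSO into MOPS/BSA assay buffer; MgATP mix with [γ-33P]ATP added to start; 40 min incubation at room temperature; phosphoric acid stop; filtermat spotting, washing in 50 mM phosphoric acid and methanol; scintillation counting.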

cSRC(h) = cSRC(h) (Homo sapiens, UniProt P12931); assay: KinaseProfiler kinase assay; assay type: biochemical
Chain of cSRC(h) (P12931 whole entry): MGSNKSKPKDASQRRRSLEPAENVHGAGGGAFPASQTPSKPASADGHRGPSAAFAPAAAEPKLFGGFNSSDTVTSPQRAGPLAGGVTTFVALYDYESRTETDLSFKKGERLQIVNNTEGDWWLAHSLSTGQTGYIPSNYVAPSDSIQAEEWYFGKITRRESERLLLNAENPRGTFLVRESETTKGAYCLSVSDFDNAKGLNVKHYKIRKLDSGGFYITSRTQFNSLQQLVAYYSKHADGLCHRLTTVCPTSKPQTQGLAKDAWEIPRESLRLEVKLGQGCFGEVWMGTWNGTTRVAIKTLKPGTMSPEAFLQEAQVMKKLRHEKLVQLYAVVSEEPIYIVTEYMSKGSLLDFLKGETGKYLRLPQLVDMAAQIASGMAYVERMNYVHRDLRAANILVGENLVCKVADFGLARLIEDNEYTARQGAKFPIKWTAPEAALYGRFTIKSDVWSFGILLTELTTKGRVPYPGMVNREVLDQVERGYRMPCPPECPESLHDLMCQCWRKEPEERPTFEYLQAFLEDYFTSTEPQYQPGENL
Summary of the method: as §2

Aurora-A(h) = target: T2, Aurora-A(h) (Homo sapiens, UniProt O14965); assay: KinaseProfiler kinase assay; assay type: biochemical; settings: for inhibition at 1 µM: read-out: % Inhibition @1 μM Auroro-A
T2 sequence (O14965 1-403): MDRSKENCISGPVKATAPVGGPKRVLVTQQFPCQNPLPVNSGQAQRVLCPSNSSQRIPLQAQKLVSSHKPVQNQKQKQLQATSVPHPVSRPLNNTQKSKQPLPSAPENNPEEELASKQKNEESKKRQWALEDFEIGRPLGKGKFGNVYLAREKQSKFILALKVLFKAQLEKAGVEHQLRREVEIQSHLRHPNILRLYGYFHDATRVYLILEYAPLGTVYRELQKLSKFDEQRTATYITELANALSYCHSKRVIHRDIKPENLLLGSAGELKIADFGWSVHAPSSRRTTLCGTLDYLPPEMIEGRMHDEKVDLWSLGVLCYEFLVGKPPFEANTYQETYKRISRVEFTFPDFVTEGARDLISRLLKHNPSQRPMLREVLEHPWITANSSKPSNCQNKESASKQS
Summary of the method: as §2

Ret(h) = Ret(h) (Homo sapiens, UniProt P07949); assay: KinaseProfiler kinase assay; assay type: biochemical
Chain of Ret(h) (P07949 29-1114): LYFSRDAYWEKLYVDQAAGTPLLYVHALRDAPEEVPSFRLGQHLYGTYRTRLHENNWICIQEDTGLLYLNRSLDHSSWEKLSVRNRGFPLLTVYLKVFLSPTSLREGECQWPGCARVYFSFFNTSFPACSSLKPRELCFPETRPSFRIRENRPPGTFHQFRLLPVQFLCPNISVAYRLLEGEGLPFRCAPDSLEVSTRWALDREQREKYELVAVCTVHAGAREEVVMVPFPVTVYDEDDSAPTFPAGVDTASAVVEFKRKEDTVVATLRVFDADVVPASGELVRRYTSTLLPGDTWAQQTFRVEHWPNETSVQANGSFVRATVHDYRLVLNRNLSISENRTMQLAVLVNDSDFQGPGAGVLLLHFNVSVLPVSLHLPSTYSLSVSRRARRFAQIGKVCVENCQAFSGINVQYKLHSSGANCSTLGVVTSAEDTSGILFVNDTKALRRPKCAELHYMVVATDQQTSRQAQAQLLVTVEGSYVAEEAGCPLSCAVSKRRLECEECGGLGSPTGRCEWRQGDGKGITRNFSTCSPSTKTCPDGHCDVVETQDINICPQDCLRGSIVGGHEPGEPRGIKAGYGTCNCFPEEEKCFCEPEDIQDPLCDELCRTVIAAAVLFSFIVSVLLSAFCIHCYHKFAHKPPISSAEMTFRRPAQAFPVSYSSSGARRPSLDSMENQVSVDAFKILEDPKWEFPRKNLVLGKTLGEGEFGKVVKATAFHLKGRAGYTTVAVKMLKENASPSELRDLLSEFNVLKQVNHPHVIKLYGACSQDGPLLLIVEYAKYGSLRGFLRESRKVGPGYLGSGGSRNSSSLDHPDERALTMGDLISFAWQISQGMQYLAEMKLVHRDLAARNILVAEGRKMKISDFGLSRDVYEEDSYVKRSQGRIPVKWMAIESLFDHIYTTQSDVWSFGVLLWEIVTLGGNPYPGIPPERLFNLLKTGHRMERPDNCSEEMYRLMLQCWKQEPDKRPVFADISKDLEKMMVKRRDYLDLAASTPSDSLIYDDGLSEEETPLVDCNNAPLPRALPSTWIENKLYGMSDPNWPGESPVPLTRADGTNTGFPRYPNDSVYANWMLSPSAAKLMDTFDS
Summary of the method: as §2

TT = assay: CellTiterBlue cell growth inhibition; assay type: cell-based; settings: Homo sapiens, 72 hours
Description: as §1

AN3.CA = assay: CellTiterBlue cell growth inhibition; assay type: cell-based; settings: Homo sapiens, 72 hours
Description: as §1

Chain of KDR(h) (P35968 20-1356): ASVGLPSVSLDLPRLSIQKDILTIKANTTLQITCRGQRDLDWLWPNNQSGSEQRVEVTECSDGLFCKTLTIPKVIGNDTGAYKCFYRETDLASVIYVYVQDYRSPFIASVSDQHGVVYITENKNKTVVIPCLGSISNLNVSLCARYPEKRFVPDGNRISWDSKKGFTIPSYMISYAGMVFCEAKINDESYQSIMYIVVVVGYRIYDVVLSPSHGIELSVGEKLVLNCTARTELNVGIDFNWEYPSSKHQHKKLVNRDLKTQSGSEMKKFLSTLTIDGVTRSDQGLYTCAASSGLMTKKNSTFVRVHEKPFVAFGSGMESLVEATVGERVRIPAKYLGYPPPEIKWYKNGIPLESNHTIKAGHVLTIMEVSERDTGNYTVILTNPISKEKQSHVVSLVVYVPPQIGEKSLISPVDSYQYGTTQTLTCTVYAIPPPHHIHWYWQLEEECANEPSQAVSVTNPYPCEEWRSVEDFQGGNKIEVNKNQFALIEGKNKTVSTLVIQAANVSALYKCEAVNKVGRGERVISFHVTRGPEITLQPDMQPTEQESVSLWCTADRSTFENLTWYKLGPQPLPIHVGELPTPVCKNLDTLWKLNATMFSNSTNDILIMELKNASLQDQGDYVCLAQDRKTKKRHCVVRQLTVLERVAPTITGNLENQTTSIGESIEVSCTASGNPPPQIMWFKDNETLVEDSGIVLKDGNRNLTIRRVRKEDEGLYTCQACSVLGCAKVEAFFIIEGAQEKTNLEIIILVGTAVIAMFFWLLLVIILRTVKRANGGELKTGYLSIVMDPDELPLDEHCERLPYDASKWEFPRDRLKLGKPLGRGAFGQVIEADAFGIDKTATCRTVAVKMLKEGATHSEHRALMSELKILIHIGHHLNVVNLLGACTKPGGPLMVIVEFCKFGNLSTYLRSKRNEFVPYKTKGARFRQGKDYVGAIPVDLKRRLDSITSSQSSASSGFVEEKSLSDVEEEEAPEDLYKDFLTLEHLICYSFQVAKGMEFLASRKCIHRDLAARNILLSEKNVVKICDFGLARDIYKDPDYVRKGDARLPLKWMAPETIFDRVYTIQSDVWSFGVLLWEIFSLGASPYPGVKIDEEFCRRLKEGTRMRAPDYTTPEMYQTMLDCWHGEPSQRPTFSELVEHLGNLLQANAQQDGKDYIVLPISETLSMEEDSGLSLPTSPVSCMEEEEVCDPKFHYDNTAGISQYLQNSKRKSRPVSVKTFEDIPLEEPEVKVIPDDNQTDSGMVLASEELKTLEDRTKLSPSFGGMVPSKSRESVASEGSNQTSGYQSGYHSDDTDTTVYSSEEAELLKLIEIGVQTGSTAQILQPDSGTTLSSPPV

inhibition at 1 µM (KDR(h)) [%] | inhibition at 1 µM (Abl(h)) [%] | IC50 (Abl(h); read-out: IC50 (nM) Abl (h)) [nM] | GI50 (MV4.11) [nM] | GI50 (K562) [nM] | GI50 (RS4.11) [nM] | inhibition at 1 µM (Flt3(h)) [%] | IC50 (Flt3(h); read-out: IC50 (nM) Flt3 (h)) [nM] | inhibition at 1 µM (cSRC(h)) [%] | IC50 (cSRC(h); read-out: IC50 (nM) cSrc (h)) [nM] | inhibition at 1 µM (Aurora-A(h)) [%] | IC50 (Aurora-A(h); read-out: IC50 (nM) Auroro-A (h)) [nM] | inhibition at 1 µM (Ret(h)) [%] | IC50 (Ret(h); read-out: IC50 (nM) Ret (h)) [nM] | Structure (SMILES) | anti-tumor effect [1] | GI50 (KU812) [nM] | GI50 (TT) [nM] | GI50 (AN3.CA) [nM]
96 | 112 | 0.5 | 0.41 | 0.28 | 3.22 | 100 | 0.3 | 100 | 2 | 100 | 2 | 101 | 1 | Cc1cc2c(F)c(Oc3nc(Nc4cc(C5CC5)[nH]n4)cc(N4CCN(CCO)CC4)n3)ccc2[nH]1 [Compound 12] | strong anti-tumor effect | 0.27 |  | 
96 | 110 |  | 0.4 | 0.55 | 3.3 | 99 |  | 99 |  | 100 |  | 101 |  | Cc1cc2c(F)c(Oc3nc(Nc4cc(C5CC5)[nH]n4)cc(N4CCN(CCO)CC4)n3)cc(F)c2[nH]1 [Compound 83] | strong anti-tumor effect | 0.67 |  | 

Structure (SMILES) | inhibition at 1 µM (KDR(h)) [%] | inhibition at 1 µM (Abl(h)) [%] | IC50 (Abl(h); read-out: IC50 (nM) Abl (h)) [nM] | GI50 (MV4.11) [nM] | GI50 (K562) [nM] | GI50 (RS4.11) [nM] | inhibition at 1 µM (Flt3(h)) [%] | IC50 (Flt3(h); read-out: IC50 (nM) Flt3 (h)) [nM] | inhibition at 1 µM (cSRC(h)) [%] | IC50 (cSRC(h); read-out: IC50 (nM) cSrc (h)) [nM] | inhibition at 1 µM (Aurora-A(h)) [%] | IC50 (Aurora-A(h); read-out: IC50 (nM) Auroro-A (h)) [nM] | inhibition at 1 µM (Ret(h)) [%] | IC50 (Ret(h); read-out: IC50 (nM) Ret (h)) [nM] | anti-tumor effect [1] | GI50 (KU812) [nM] | GI50 (TT) [nM] | GI50 (AN3.CA) [nM]
C/C=C/c1cc(Nc2cc(N3CCNCC3)nc(Oc3cc(F)c4[nH]c(C)cc4c3F)n2)n[nH]1 [Compound 90] | 95 | 112 |  | 0.13 | 0.85 | 5.07 | 100 |  | 101 |  | 100 |  | 99 |  | strong anti-tumor effect | 0.9 | 3.8 | 2
